In US9708314B2, “Heterocyclic amide compound” (NISSAN CHEMICAL INDUSTRIES, LTD., priority 2013, dated 2017):

Legend:
Assay type in all cases: in vivo
Alopecurus myosuroides = assay: Test Example 4: herbicidal effect by application to foliage (diluvial soil, plastic box); conditions: application to foliage; for J: herbicidal effect on Alopecurus myosuroides: application herbicide amount 320 g/ha
Method in brief: (§1)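 Emulsion-formulated compound, diluted to a predetermined g/ha dose, applied by small sprayer to leaves and stems of 14-day-old seedlings grown in sterilized diluvial soil. Effect rated on 0–5 herbicidal-ratio scale three weeks on.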

[1] = system: Echinochloa crus-galli var. crus-galli; assay: as above; conditions: application to foliage; for H: herbicidal effect on Echinochloa crus-galli var. crus-galli: application herbicide amount 320 g/ha
Method in brief: as §1

Avena fatua = assay: as above; conditions: application to foliage; for I: herbicidal effect on Avena fatua: application herbicide amount 320 g/ha
Method in brief: as §1

Setaria viridis = assay: as above; conditions: application to foliage; for G: herbicidal effect on Setaria viridis: application herbicide amount 320 g/ha
Method in brief: as §1

Lolium multiflorum Lam. = assay: as above; conditions: application to foliage; for K: herbicidal effect on Lolium multiflorum Lam.: application herbicide amount 320 g/ha
Method in brief: as §1

Abutilon theophrasti = assay: as above; conditions: application to foliage; for M: herbicidal effect on Abutilon theophrasti: application herbicide amount 320 g/ha
Method in brief: as §1

Chenopodium album = assay: as above; conditions: application to foliage; for O: herbicidal effect on Chenopodium album: application herbicide amount 320 g/ha
Method in brief: as §1

Digitaria ciliaris = assay: as above; conditions: application to foliage; for F: herbicidal effect on Digitaria ciliaris: application herbicide amount 320 g/ha
Method in brief: as §1

Galium spurium = assay: as above; conditions: application to foliage; for Q: herbicidal effect on Galium spurium: application herbicide amount 320 g/ha
Method in brief: as §1

Apera spica-venti. = assay: as above; conditions: application to foliage; for L: herbicidal effect on Apera spica-venti.: application herbicide amount 320 g/ha
Method in brief: as §1

[2] = system: Echinochloa crus-galli var. crus-galli; assay: Test Example 3: herbicidal effect by application to foliage (Wagner pot, water depth 0.1-0.5 cm); conditions: Nineteenth Table; application to foliage; application herbicide amount 320 g/ha
Method in brief: (§2)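 A small sprayer delivered the diluted emulsion uniformly to foliage at the chosen rate in g/ha, 14 days after sowing in Wagner pots held at 25–30 °C. Outcome: 0–5 herbicidal-ratio score read three weeks post-treatment.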

Leptochloa chinensis = assay: as above; conditions: Nineteenth Table; application to foliage; application herbicide amount 320 g/ha
Method in brief: as §2

[3] = system: directly sowed Oryza sativa; assay: Test Example 4: effect on crop by application to foliage (diluvial soil, plastic box); conditions: application to foliage; for b: effect on crop, directly sowed Oryza sativa: application herbicide amount 320 g/ha
Method in brief: as §1

Glycine max = assay: as above; conditions: application to foliage; for d: effect on crop, Glycine max: application herbicide amount 320 g/ha
Method in brief: as §1

Zea mays = assay: as above; conditions: application to foliage; for c: effect on crop, Zea mays: application herbicide amount 320 g/ha
Method in brief: as §1

Triticum aestivum = assay: as above; conditions: application to foliage; for e: effect on crop, Triticum aestivum: application herbicide amount 320 g/ha
Method in brief: as §1

Brassica campestris L. = assay: as above; conditions: application to foliage; for g: effect on crop, Brassica campestris L.: application herbicide amount 320 g/ha
Method in brief: as §1

[4] = system: Beta vulgaris ssp. vulgaris; assay: as above; conditions: application to foliage; for f: effect on crop, Beta vulgaris ssp. vulgaris: application herbicide amount 320 g/ha
Method in brief: as §1

Compound | H (herbicidal effect grade) [2] | D (herbicidal effect grade) (Leptochloa chinensis) | J: herbicidal effect on Alopecurus myosuroides (Alopecurus myosuroides) | H: herbicidal effect on Echinochloa crus-galli var. crus-galli [1] | I: herbicidal effect on Avena fatua (Avena fatua) | G: herbicidal effect on Setaria viridis (Setaria viridis) | K: herbicidal effect on Lolium multiflorum Lam. (Lolium multiflorum Lam.) | M: herbicidal effect on Abutilon theophrasti (Abutilon theophrasti) | O: herbicidal effect on Chenopodium album (Chenopodium album) | F: herbicidal effect on Digitaria ciliaris (Digitaria ciliaris) | Q: herbicidal effect on Galium spurium (Galium spurium) | L: herbicidal effect on Apera spica-venti. (Apera spica-venti.) | b: effect on crop, directly sowed Oryza sativa [3] | d: effect on crop, Glycine max (Glycine max) | c: effect on crop, Zea mays (Zea mays) | e: effect on crop, Triticum aestivum (Triticum aestivum) | g: effect on crop, Brassica campestris L. (Brassica campestris L.) | f: effect on crop, Beta vulgaris ssp. vulgaris [4] | further results
CCSc1nnc2c(C(=O)Nc3ncnn3C)ccc(C(F)(F)F)n12 [4-003] | 4 (Herbicidal ratio of 70% or more and less than 90%) | 3 (Herbicidal ratio of 40% or more and less than 70%) |  |  |  |  |  |  |  |  |  |  |  |  |  |  |  |  | herbicidal effect, J (Alopecurus myosuroides) (Alopecurus myosuroides; 320 g/ha): 0 (Herbicidal ratio of 5% or less (almost no effect)); herbicidal effect, H (Echinochloa crus-galli var. crus-galli) ([1]; 320 g/ha): 4 (Herbicidal ratio of 70% or more and less than 90%); herbicidal effect, I (Avena fatua) (Avena fatua; 320 g/ha): 0 (Herbicidal ratio of 5% or less (almost no effect)); herbicidal effect, G (Setaria viridis) (Setaria viridis; 320 g/ha): 1 (Herbicidal ratio of 5% or more and less than 20%); herbicidal effect, K (Lolium multiflorum Lam.) (Lolium multiflorum Lam.; 320 g/ha): 0 (Herbicidal ratio of 5% or less (almost no effect)); herbicidal effect, M (Abutilon theophrasti) (Abutilon theophrasti; 320 g/ha): 4 (Herbicidal ratio of 70% or more and less than 90%); herbicidal effect, O (Chenopodium album) (Chenopodium album; 320 g/ha): 5 (Herbicidal ratio of 90% or more (almost completely withered)); herbicidal effect, F (Digitaria ciliaris) (Digitaria ciliaris; 320 g/ha): 2 (Herbicidal ratio of 20% or more and less than 40%); herbicidal effect, Q (Galium spurium) (Galium spurium; 320 g/ha): 1 (Herbicidal ratio of 5% or more and less than 20%); herbicidal effect, L (Apera spica-venti.) (Apera spica-venti.; 320 g/ha): 1 (Herbicidal ratio of 5% or more and less than 20%); effect on crop, d (directly sowed Oryza sativa) ([3]; 320 g/ha): 4 (Herbicidal ratio of 70% or more and less than 90%); effect on crop, c (Glycine max) (Glycine max; 320 g/ha): 0 (Herbicidal ratio of 5% or less (almost no effect)); effect on crop, b (Zea mays) (Zea mays; 320 g/ha): 0 (Herbicidal ratio of 5% or less (almost no effect)); effect on crop, e (Triticum aestivum) (Triticum aestivum; 320 g/ha): 0 (Herbicidal ratio of 5% or less (almost no effect)); effect on crop, g (Brassica campestris L.) (Brassica campestris L.; 320 g/ha): 1 (Herbicidal ratio of 5% or more and less than 20%); effect on crop, f (Beta vulgaris ssp. vulgaris) ([4]; 320 g/ha): 4 (Herbicidal ratio of 70% or more and less than 90%)
C#CCN(C)c1nnc2c(C(=O)Nc3nnco3)ccc(C(F)(F)F)n12 [1-163] | 5 (Herbicidal ratio of 90% or more (almost completely withered)) | 5 (Herbicidal ratio of 90% or more (almost completely withered)) | 1 (Herbicidal ratio of 5% or more and less than 20%) | 5 (Herbicidal ratio of 90% or more (almost completely withered)) | 2 (Herbicidal ratio of 20% or more and less than 40%) | 3 (Herbicidal ratio of 40% or more and less than 70%) | 1 (Herbicidal ratio of 5% or more and less than 20%) | 4 (Herbicidal ratio of 70% or more and less than 90%) | 5 (Herbicidal ratio of 90% or more (almost completely withered)) | 4 (Herbicidal ratio of 70% or more and less than 90%) | 3 (Herbicidal ratio of 40% or more and less than 70%) | 1 (Herbicidal ratio of 5% or more and less than 20%) | 0 (Herbicidal ratio of 5% or less (almost no effect)) | 4 (Herbicidal ratio of 70% or more and less than 90%) | 0 (Herbicidal ratio of 5% or less (almost no effect)) | 1 (Herbicidal ratio of 5% or more and less than 20%) | 3 (Herbicidal ratio of 40% or more and less than 70%) | 4 (Herbicidal ratio of 70% or more and less than 90%) | 
Cc1nnc(NC(=O)c2ccc(C(F)(F)F)n3c(CC#N)nnc23)o1 [1-168] | 4 (Herbicidal ratio of 70% or more and less than 90%) | 3 (Herbicidal ratio of 40% or more and less than 70%) | 0 (Herbicidal ratio of 5% or less (almost no effect)) | 5 (Herbicidal ratio of 90% or more (almost completely withered)) | 1 (Herbicidal ratio of 5% or more and less than 20%) | 4 (Herbicidal ratio of 70% or more and less than 90%) | 1 (Herbicidal ratio of 5% or more and less than 20%) | 3 (Herbicidal ratio of 40% or more and less than 70%) | 5 (Herbicidal ratio of 90% or more (almost completely withered)) | 5 (Herbicidal ratio of 90% or more (almost completely withered)) | 1 (Herbicidal ratio of 5% or more and less than 20%) | 0 (Herbicidal ratio of 5% or less (almost no effect)) | 3 (Herbicidal ratio of 40% or more and less than 70%) | 3 (Herbicidal ratio of 40% or more and less than 70%) | 0 (Herbicidal ratio of 5% or less (almost no effect)) | 1 (Herbicidal ratio of 5% or more and less than 20%) | 3 (Herbicidal ratio of 40% or more and less than 70%) | 5 (Herbicidal ratio of 90% or more (almost completely withered)) | 
COCCc1nnc2c(C(=O)Nc3nnc(C)o3)ccc(C(F)(F)F)n12 [1-173] | 5 (Herbicidal ratio of 90% or more (almost completely withered)) | 4 (Herbicidal ratio of 70% or more and less than 90%) | 1 (Herbicidal ratio of 5% or more and less than 20%) | 5 (Herbicidal ratio of 90% or more (almost completely withered)) | 2 (Herbicidal ratio of 20% or more and less than 40%) | 3 (Herbicidal ratio of 40% or more and less than 70%) | 1 (Herbicidal ratio of 5% or more and less than 20%) | 5 (Herbicidal ratio of 90% or more (almost completely withered)) | 5 (Herbicidal ratio of 90% or more (almost completely withered)) | 4 (Herbicidal ratio of 70% or more and less than 90%) | 4 (Herbicidal ratio of 70% or more and less than 90%) | 1 (Herbicidal ratio of 5% or more and less than 20%) | 3 (Herbicidal ratio of 40% or more and less than 70%) | 4 (Herbicidal ratio of 70% or more and less than 90%) | 0 (Herbicidal ratio of 5% or less (almost no effect)) | 1 (Herbicidal ratio of 5% or more and less than 20%) | 4 (Herbicidal ratio of 70% or more and less than 90%) | 5 (Herbicidal ratio of 90% or more (almost completely withered)) | 
